Experiment [1] has as its system Diamondback Moth (Plutella xylostella, PLUTMA). Put plainly: Bioassay 6: Diamondback Moth, artificial lepidopteran diet, live larvae after 5 days. In kind it is in vivo. Particulars: DBM; F1 alone 0.4 % w/v. The method, then:
where X=No. of live nymphs on solvent check and Y=No. of live nymphs on treated bean segments. In Table B5 the “Expected % Control” was calculated using the method described in Colby S. R., Weeds, 1967, 15, 20-22. Bioassay 6: Beet Armyworm (Spodoptera exigua, LAPHEG) (BAW), and Diamondback Moth (Plutella xylostella, PLUTMA) (DBM).
Stock solutions were prepared with Formula One as well as for each of the active ingredients individually. Test solutions were prepared from the stock solutions. Test solutions were prepared containing Formula One, the individual active ingredients, and mixtures of Formula One with each of the active ingredients. The test solution for Formula One was prepared by adding 500 μL of the stock solution to a 25 mL glass vial, then adding 500 μL of a 9:1 mixture of acetone: water. The individual active ingredients were prepared by adding 500 μL of stock solution to a 25 mL glass vial, then adding 500 μL of a 9:1 mixture of acetone: water. The test solutions containing mixtures of Formula One and the individual active ingredients were prepared by adding 500 μL of the active ingredient stock solution to a 25 mL glass vial, followed by 500 μL of the Formula One stock solution, creating a test solution containing 4000 ppm Formula One and 0.4% (w/v) of the active ingredient. Each test solution was serially diluted to create desired doses of test solutions (0.4% (w/v), 0.04% (w/v), 0.004% (w/v), 0.0004% (w/v), 0.00004% (w/v), and 0.000004% (w/v)). In test solutions containing mixtures of Formula One and the active ingredients, the active ingredients were diluted as described above, but the Concentration of Formula One was held constant (0.4% (w/v)). The highest dose test solution (0.4% (w/v)) was discarded, leaving 5 test solution concentrations used in the test.
The test solutions were tested against BAW and DBM using the following procedure: An artificial lepidopteran diet (Multispecies Lepidopteran Diet, Southland Products) was distributed in 128-cell bioassay trays (Frontier Agricultural Sciences™). 50 μL of test solution was pipetted into a cell in the bioassay tray. (The test solution doses of 0.04% (w/v), 0.004% (w/v), 0.0004% (w/v), 0.00004% (w/v), and 0.000004% (w/v) translated to concentrations of 5, 0.5, 0.05, 0.005, and 0.0005 ug/cm^2 on the diet, respectively.) A reference treatment (solvent check) was treated with the diluent only. […] After 5 days, the number of live larvae were recorded from each cell and percent control was measured using Abbott's correction formula (W. S. Abbott, J. Econ. Entomol. 18 (1925), pp. 265-267) as follows:
where X=No. of live larvae on solvent check and Y=No. of live larvae on treated diet. In Table B6 the “Expected % Control” was calculated using the method described in Colby S. R., Weeds, 1967, 15, 20-22. […]

Experiment [2] concerns Cotton Aphid (Aphis gossypii, APHIGO). Put plainly: Bioassay 7: Cotton Aphid, foliar spray on infested cotton seedlings, live aphids counted three days after treatment. It counts as in vivo.

Structures are written as SMILES. Several values for one entry are separate records, joined by “and”; a condition that tells them apart may be missing. Equal values may be shown once.

We go through one compound from patent US20250338846A1, “COMPOSITIONS HAVING PESTICIDAL UTILITY AND PROCESSES RELATED THERETO” (CORTEVA AGRISCIENCE, LLC, priority 2022, published 2025).

In the case of `CCN(C(=O)CCS(C)(=O)=O)c1sc(-c2cccnc2)nc1Cl` [Formula F1, N-(4-chloro-2-(pyridin-3-yl)thiazol-5-yl)-N-ethyl-3-(methylsulfonyl)propanamide], the “Average % Control F1” value in experiment [1] is 0%; in experiment [2] (F1 alone 0.1 (10^-5) Wt %), 24.39%; in experiment [2] (F1 alone 0.2 (10^-5) Wt %) it was 5.79%; in experiment [2] (F1 alone 0.78 (10^-5) Wt %), 25.58%; in experiment [2] (F1 alone 0.8 (10^-5) Wt %) it was 24.39% and 47.56%; in experiment [2] (F1 alone 2.5 (10^-5) Wt %) it was 29.04%.
